Experimental data published in patent US8445492B2, “Method for inhibiting growth of cancer cells and cell telomere and diseases of cell proliferation by using heteroannelated anthraquinone derivative compounds” (National Defense Medical Center, priority 2008, dated 2013).
Where two headings read alike, the source gives them in different places.

How the values were obtained:
[1] = system: HOP-62; test: in vitro test at 1.0×10^−5 M, Non-small cell lung cancer cell; format: cell-based; conditions: 1.0×10^−5 molal concentration (M)
[2] = system: HCC-2998; test: in vitro test at 1.0×10^−5 M, Colorectal cancer cell; format: cell-based; conditions: 1.0×10^−5 molal concentration (M)
[3] = system: HS 578T; test: in vitro test at 1.0×10^−5 M, Breast cancer cell; format: cell-based; conditions: 1.0×10^−5 molal concentration (M)
[4] = system: LOX IMV1; test: in vitro test at 1.0×10^−5 M, Skin cancer cell; format: cell-based; conditions: 1.0×10^−5 molal concentration (M)
[5] = system: different cancer cell lines; test: in vitro test at 1.0×10^−5 M, summary over the cell lines; format: cell-based; conditions: 1.0×10^−5 molal concentration (M)
[6] = system: CCRF-CEM
[7] = system: HL-60(TB)
[8] = system: MOLT-4
[9] = system: RPMI-8226
[10] = system: A549/ATCC
[11] = system: EKVX
[12] = system: HOP-62
[13] = system: HOP-92
[14] = system: NCI-H226
[15] = system: NCI-H23
[16] = system: NCI-H460
[17] = system: NCI-H522
[18] = system: CCRF-CEM; test: cells; conditions: Homo sapiens
[19] = system: HL-60(TB); test: cells; conditions: Homo sapiens
[20] = system: K-562; test: cells; conditions: Homo sapiens
[21] = system: PC-3
[22] = system: MOLT-4; test: cells; conditions: Homo sapiens
[23] = system: RPMI-8226; test: cells; conditions: Homo sapiens
[24] = system: A549/ATCC; test: cells; conditions: Homo sapiens
[25] = system: EKVX; test: cells; conditions: Homo sapiens
[26] = system: HOP-92; test: cells; conditions: Homo sapiens
[27] = system: NCI-H226; test: cells; conditions: Homo sapiens
[28] = system: NCI-H23; test: cells; conditions: Homo sapiens
[29] = system: NCI-H460; test: cells; conditions: Homo sapiens
[30] = system: NCI-H522; test: cells; conditions: Homo sapiens
[31] = system: PC-3; test: cells; conditions: Homo sapiens
[32] = system: DU-145; test: cells; conditions: Homo sapiens

Compound: O=C1c2ccccc2C(=O)c2c1ccc1nsnc21 [No. 22, Anthra[2,1-c][1,2,5]thiadiazole-6,11-dione]
- inhibition effect on cancer cell line (Table 2 value) [1]: −100.00
- inhibition effect on cancer cell line (Table 2 value) [2]: −50.00
- inhibition effect on cancer cell line (Table 2 value) [3]: −7.40
- inhibition effect on cancer cell line (Table 2 value) [4]: −50.6
- Mean [5]: 2.68
- TGI ([6]; CCRF-CEM): >1.00E−4
- Percent Growth ([6]; Log10 Concentration −4.0): 2%
- Percent Growth ([6]; Log10 Concentration −5.0): 2%
- Percent Growth ([6]; Log10 Concentration −6.0): 74%
- Percent Growth ([6]; Log10 Concentration −7.0): 90%
- Percent Growth ([6]; Log10 Concentration −8.0): 97%
- TGI ([7]; HL-60(TB)): 5.13E−6
- Percent Growth ([7]; Log10 Concentration −4.0): −43%
- Percent Growth ([7]; Log10 Concentration −5.0): −38%
- Percent Growth ([7]; Log10 Concentration −6.0): 93%
- Percent Growth ([7]; Log10 Concentration −7.0): 102%
- Percent Growth ([7]; Log10 Concentration −8.0): 103%
- Percent Growth ([8]; Log10 Concentration −4.0): −38%
- Percent Growth ([8]; Log10 Concentration −5.0): −40%
- Percent Growth ([8]; Log10 Concentration −6.0): 73%
- Percent Growth ([8]; Log10 Concentration −7.0): 99%
- Percent Growth ([8]; Log10 Concentration −8.0): 97%
- TGI ([8]; MOLT-4): 4.43E−6
- Percent Growth ([9]; Log10 Concentration −4.0): −20%
- Percent Growth ([9]; Log10 Concentration −6.0): 61%
- Percent Growth ([9]; Log10 Concentration −7.0): 94%
- Percent Growth ([9]; Log10 Concentration −8.0): 100%
- TGI ([9]; RPMI-8226): 9.91E−6
- TGI ([10]; A549/ATCC): 5.94E−6
- Percent Growth ([10]; Log10 Concentration −4.0): −18%
- Percent Growth ([10]; Log10 Concentration −5.0): −27%
- Percent Growth ([10]; Log10 Concentration −6.0): 92%
- Percent Growth ([10]; Log10 Concentration −7.0): 93%
- Percent Growth ([10]; Log10 Concentration −8.0): 104%
- TGI ([11]; EKVX): 7.03E−6
- Percent Growth ([11]; Log10 Concentration −4.0): −62%
- Percent Growth ([11]; Log10 Concentration −5.0): −15%
- Percent Growth ([11]; Log10 Concentration −6.0): 84%
- Percent Growth ([11]; Log10 Concentration −7.0): 89%
- Percent Growth ([11]; Log10 Concentration −8.0): 96%
- TGI ([12]; HOP-62): 1.21E−5
- Percent Growth ([12]; Log10 Concentration −4.0): −49%
- Percent Growth ([12]; Log10 Concentration −5.0): 4%
- Percent Growth ([12]; Log10 Concentration −6.0): 107%
- Percent Growth ([12]; Log10 Concentration −7.0): 107%
- Percent Growth ([12]; Log10 Concentration −8.0): 107%
- TGI ([13]; HOP-92): 9.84E−6
- Percent Growth ([13]; Log10 Concentration −4.0): −27%
- Percent Growth ([13]; Log10 Concentration −5.0): −1%
- Percent Growth ([13]; Log10 Concentration −6.0): 94%
- Percent Growth ([13]; Log10 Concentration −7.0): 88%
- Percent Growth ([13]; Log10 Concentration −8.0): 95%
- Percent Growth ([14]; Log10 Concentration −4.0): −5%
- Percent Growth ([14]; Log10 Concentration −5.0): 63%
- Percent Growth ([14]; Log10 Concentration −6.0): 75%
- Percent Growth ([14]; Log10 Concentration −7.0): 95%
- Percent Growth ([14]; Log10 Concentration −8.0): 97%
- TGI ([14]; NCI-H226): 8.53E−5
- Percent Growth ([15]; Log10 Concentration −4.0): −35%
- Percent Growth ([15]; Log10 Concentration −5.0): −37%
- Percent Growth ([15]; Log10 Concentration −6.0): 46%
- Percent Growth ([15]; Log10 Concentration −7.0): 91%
- Percent Growth ([15]; Log10 Concentration −8.0): 101%
- TGI ([15]; NCI-H23): 3.59E−6
- Percent Growth ([16]; Log10 Concentration −4.0): −58%
- Percent Growth ([16]; Log10 Concentration −5.0): −53%
- Percent Growth ([16]; Log10 Concentration −6.0): 87%
- Percent Growth ([16]; Log10 Concentration −7.0): 97%
- Percent Growth ([16]; Log10 Concentration −8.0): 100%
- TGI ([16]; NCI-H460): 4.19E−6
- Percent Growth ([17]; Log10 Concentration −4.0): −18%
- Percent Growth ([17]; Log10 Concentration −5.0): 6%
- Percent Growth ([17]; Log10 Concentration −6.0): 90%
- Percent Growth ([17]; Log10 Concentration −7.0): 103%
- Percent Growth ([17]; Log10 Concentration −8.0): 103%
- TGI ([17]; NCI-H522): 1.78E−5
- GI50 [18]: 2.18 µM
- CC50 ([18]; read-out: LC50): > 100 µM
- GI50 ([19]; HL-60): 2.14 µM
- CC50 ([19]; HL-60, read-out: LC50): > 100 µM
- GI50 ([20]; K562): 3.23 µM
- CC50 ([20]; K562, read-out: LC50): > 100 µM
- Percent Growth ([21]; Log10 Concentration −4.0): 4%
- Percent Growth ([21]; Log10 Concentration −5.0): 11%
- Percent Growth ([21]; Log10 Concentration −6.0): 86%
- Percent Growth ([21]; Log10 Concentration −7.0): 92%
- Percent Growth ([21]; Log10 Concentration −8.0): 96%
- TGI ([21]; PC-3): >1.00E−4
- GI50 ([22]; MOLT-4): 1.59 µM
- CC50 ([22]; MOLT-4, read-out: LC50): > 100 µM
- GI50 ([23]; RPMI-8226): 1.53 µM
- CC50 ([23]; RPMI-8226, read-out: LC50): > 100 µM
- GI50 ([24]; A549): 2.25 µM
- CC50 ([24]; A549, read-out: LC50): > 100 µM
- GI50 [25]: 2.19 µM
- CC50 ([25]; read-out: LC50): 56.5 µM
- GI50 ([26]; HOP-92): 2.91 µM
- CC50 ([26]; HOP-92, read-out: LC50): > 100 µM
- GI50 ([27]; NCI-H226): 15.6 µM
- CC50 ([27]; NCI-H226, read-out: LC50): > 100 µM
- GI50 ([28]; NCI-H23): 0.802 µM
- CC50 ([28]; NCI-H23, read-out: LC50): > 100 µM
- GI50 ([29]; NCI-H460): 1.84 µM
- CC50 ([29]; NCI-H460, read-out: LC50): 9.54 µM
- GI50 ([30]; NCI-H522): 3.01 µM
- CC50 ([30]; NCI-H522, read-out: LC50): > 100 µM
- GI50 ([31]; PC-3): 3.03 µM
- CC50 ([31]; PC-3, read-out: LC50): > 100 µM
- GI50 ([32]; DU-145): 7.41 µM
- CC50 ([32]; DU-145, read-out: LC50): 44.2 µM
